Experimental data from patent publication US20260085067A1, “CYCLIC SULFONAMIDE RIBONUCLEOTIDE REDUCTASE (RNR) INHIBITORS AND USES THEREOF” (Boundless Bio, Inc., priority 2022, published 2026).

Columns and labels:
[1] = molecular target: T1, RNR (RNR1:RNR2 1:1) (Homo sapiens, UniProt P23921); assay: RNR enzyme activity, rapid-fire mass spectrometry (RF/MS) assay; assay type: biochemical; conditions: [RNR] 50 nM, 1:1 RNR1:RNR2; CDP 5 μM; ATP 1 mM; 37° C., 45 min; compounds screened up to 50 μM
T1 sequence (P23921 1-792): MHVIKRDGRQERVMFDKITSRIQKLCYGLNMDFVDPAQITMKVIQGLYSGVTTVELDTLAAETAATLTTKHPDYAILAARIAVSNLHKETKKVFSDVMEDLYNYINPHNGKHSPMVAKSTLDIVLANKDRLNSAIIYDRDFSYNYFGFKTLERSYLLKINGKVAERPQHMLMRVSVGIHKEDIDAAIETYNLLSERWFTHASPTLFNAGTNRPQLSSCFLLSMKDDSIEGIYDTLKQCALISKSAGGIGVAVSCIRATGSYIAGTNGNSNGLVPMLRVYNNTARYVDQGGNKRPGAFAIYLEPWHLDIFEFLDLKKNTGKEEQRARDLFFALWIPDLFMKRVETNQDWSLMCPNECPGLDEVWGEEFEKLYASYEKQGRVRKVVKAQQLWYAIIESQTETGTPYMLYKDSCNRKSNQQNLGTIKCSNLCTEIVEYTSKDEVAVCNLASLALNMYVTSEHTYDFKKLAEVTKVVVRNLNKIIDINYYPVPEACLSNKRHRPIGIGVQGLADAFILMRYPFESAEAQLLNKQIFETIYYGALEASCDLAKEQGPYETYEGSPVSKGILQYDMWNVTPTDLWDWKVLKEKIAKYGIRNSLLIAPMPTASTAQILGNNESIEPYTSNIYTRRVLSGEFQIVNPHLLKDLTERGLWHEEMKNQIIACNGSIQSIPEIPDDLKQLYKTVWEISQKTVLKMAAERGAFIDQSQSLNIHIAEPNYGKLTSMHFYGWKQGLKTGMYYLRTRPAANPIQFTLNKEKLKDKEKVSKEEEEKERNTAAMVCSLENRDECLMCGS
Protocol: A rapid-fire mass spectrometry (RF/MS) assay was used to assess RNR enzyme activity using a 384 well plate and a robotic platform.
The plate layout included two validated reference compounds (Triapine (3-AP) and Hydroxyurea (HU)): • A dose response in duplicate; top concentration: 5 μM (3-AP) and 250 μM (HU), semi-log dilutions. • Spike wells in triplicate randomly spotted at four concentrations: • 250 μM, 100 μM, 30 μM and 2 μM for HU • 5 μM, 2 μM, 0.6 μM and 0.04 μM for 3-AP
First, the multidrop pipes were saturated for 30 minutes with enzymatic solution. Then 30 μL of Stop solution was distributed in column 24. Next, 15 μL of enzyme was distributed in column 1 to 24. Next, a pre-incubation step of 15 minutes at room temperature occurred, followed by distribution of 15 μL of substrate solution (column 1 to 24). Next, the plate was incubated for 45 minutes at 37° C. 30 μL of Stop solution was then distributed to columns 1 to 23.
The final parameters for the enzyme reactions were: • Incubation: 37° C., 45 min • [CDP]: 5 μM; [ATP]: 1 mM; [NADPH]: No • [RNR]final: 50 nM with 1:1 (RNR1:RNR2) ratio • Final volume: 30 μL • Stop solution: 6% HCOOH in water

[2] = test system: pCHK1 (S345) in Colo320 DM cells; assay: Alphalisa assay, detection of pCHK1 (S345) in Colo320 DM cells; assay type: cell-based, human; conditions: Homo sapiens, COLO 320DM, compound overnight (approximately 16 hours)
Protocol: Colo320 DM cells (ATCC #CCL-220, derived from human colorectal adenocarcinoma, Dukes' type C) were seeded on a […], cell culture treated assay plate at a density of 50,000 cells/well in 200 μL of RPMI-1640 media supplemented with 10% Fetal Bovine Serum and incubated at 37° C. overnight. The following day, test compound dilutions were added directly to the plated cells by a Tecan digital dispenser to a final DMSO concentration of <0.5%. and incubated at 37° C. overnight (approximately 16 hours). The following day all cell culture media was removed from the cells. 75 μL of 1×AlphaLisa lysis buffer was added to each well and plates were agitated on a shaker for 30 minutes at room temperature. The lysis of cells and detection of pCHK1 (S345) were performed with reagents contained within the AlphaLisa Sure Fire assay kit (Perkin Elmer #ALSU-PCHK1-A) according to the manufacturer's instructions. 10 μL of each lysate was then transferred to a white, 384-well assay plate (Perkin Elmer #6008280). 5 μL of Acceptor mix was then added to each well of lysate in the white, 384-well assay plate and incubated in the dark at room temperature for 60 minutes. 5 μL of Donor mix was then added to each well of the white, 384-well assay plate in subdued light and incubated at room temperature for 60 minutes. Plates were read on an Alpha Technology-compatible plate reader using standard AlphaLisa settings.

Row | Structure (SMILES) | IC50 [1] [nM] | IC50 [2] [nM]
1 | COC(=O)c1cc(Cl)cc2c1S(=O)(=O)N([C@H](c1n[nH]c(=O)o1)[C@H](C)c1c(F)ccc(C)c1C)CN2C [Example 19, methyl 6-chloro-2-((1S,2R)-2-(6-fluoro-2,3-dimethylphenyl)-1-(5-oxo-4,5-dihydro-1,3,4-oxadiazol-2-yl)propyl)-4-methyl-3,4-dihydro-2H-benzo[e][1,2,4]thiadiazine-8-carboxylate 1,1-dioxide] | 20 to 100 | 1000 to 5000
2 | Cc1ccc(F)c([C@@H](C)[C@@H](c2n[nH]c(=O)o2)N2C3CCCN3c3cc(Cl)ccc3S2(=O)=O)c1C (stereo partly drawn) [Example 20, 5-((1S,2R)-1-(8-chloro-5,5-dioxido-1,2,3,3a-tetrahydro-4H-benzo[e]pyrrolo[2,1-c][1,2,4]thiadiazin-4-yl)-2-(6-fluoro-2,3-dimethylphenyl)propyl)-1,3,4-oxadiazol-2 (3H)-one] | < 20 | 1000 to 5000
3 | Cc1ccc(F)c([C@@H](C)[C@@H](c2n[nH]c(=O)o2)N2CCNc3cc(Cl)ccc3S2(=O)=O)c1C [Example 21, 5-((1S,2R)-1-(7-chloro-1,1-dioxido-4,5-dihydrobenzo[f][1,2,5]thiadiazepin-2 (3H)-yl)-2-(6-fluoro-2,3-dimethylphenyl)propyl)-1,3,4-oxadiazol-2 (3H)-one] | 20 to 100 | 1000 to 5000
4 | Cc1ccc(F)c([C@@H](C)[C@@H](c2n[nH]c(=O)o2)N2CN(C)c3cc(Cl)cc(C(N)=O)c3S2(=O)=O)c1C [Example 22, 6-chloro-2-((1S,2R)-2-(6-fluoro-2,3-dimethylphenyl)-1-(5-oxo-4,5-dihydro-1,3,4-oxadiazol-2-yl)propyl)-4-methyl-3,4-dihydro-2H-benzo[e][1,2,4]thiadiazine-8-carboxamide 1,1-dioxide] | < 20 | ≤ 1000
5 | Cc1ccc(F)c([C@@H](C)[C@@H](c2n[nH]c(=O)o2)N2CCOc3cc(Cl)cc(C)c3S2(=O)=O)c1C [Example 24, 5-((1S,2R)-1-(7-chloro-9-methyl-1,1-dioxido-3,4-dihydro-2H-benzo[b][1,4,5]oxathiazepin-2-yl)-2-(6-fluoro-2,3-dimethylphenyl)propyl)-1,3,4-oxadiazol-2 (3H)-one] | 100 to 1000 | > 50000
6 | CC(=O)c1c(Cl)ccc2c1OCCN([C@H](c1n[nH]c(=O)o1)[C@H](C)c1c(F)ccc(C)c1C)S2(=O)=O [Example 25, 5-((1S,2R)-1-(6-acetyl-7-chloro-1,1-dioxido-3,4-dihydro-2H-benzo[b][1,4,5]oxathiazepin-2-yl)-2-(6-fluoro-2,3-dimethylphenyl)propyl)-1,3,4-oxadiazol-2 (3H)-one] | < 20 | 1000 to 5000
7 | Cc1ccc(F)c([C@@H](C)[C@@H](c2n[nH]c(=O)o2)N2CCOc3cc(Cl)ncc3S2(=O)=O)c1C [Example 27, 5-((1S,2R)-1-(7-chloro-1,1-dioxido-3,4-dihydro-2H-pyrido[4,3-b][1,4,5]oxathiazepin-2-yl)-2-(6-fluoro-2,3-dimethylphenyl)propyl)-1,3,4-oxadiazol-2 (3H)-one] | 1000 to 10000 | 10000 to 50000
8 | Cc1ccc(F)c([C@@H](C)[C@@H](c2n[nH]c(=O)o2)N2CN(C)c3c(ccc(Cl)c3C)S2(=O)=O)c1C [Example 32, 5-((1S,2R)-1-(6-chloro-4,5-dimethyl-1,1-dioxido-3,4-dihydro-2H-benzo[e][1,2,4]thiadiazin-2-yl)-2-(6-fluoro-2,3-dimethylphenyl)propyl)-1,3,4-oxadiazol-2 (3H)-one] | 20 to 100 | 10000 to 50000
9 | Cc1ccc(F)c([C@@H](C)[C@@H](c2n[nH]c(=O)o2)N2CN(C)C(=O)c3cc(Cl)ccc3S2(=O)=O)c1C [Example 35, 5-((1S,2R)-1-(7-chloro-4-methyl-1,1-dioxido-5-oxo-4,5-dihydrobenzo[f][1,2,4]thiadiazepin-2 (3H)-yl)-2-(6-fluoro-2,3-dimethylphenyl)propyl)-1,3,4-oxadiazol-2 (3H)-one] | 20 to 100 | 10000 to 50000

Second part, the compound after the results:

Row | IC50 [1] [nM] | IC50 [2] [nM] | Structure (SMILES)
10 | < 20 | 1000 to 5000 | Cc1ccc(F)c([C@@H](C)[C@@H](c2n[nH]c(=O)o2)N2CCOc3cc(Cl)cc(C(N)=O)c3S2(=O)=O)c1C [Example 23, 7-chloro-2-((1S,2R)-2-(6-fluoro-2,3-dimethylphenyl)-1-(5-oxo-4,5-dihydro-1,3,4-oxadiazol-2-yl)propyl)-3,4-dihydro-2H-benzo[b][1,4,5]oxathiazepine-9-carboxamide 1,1-dioxide]
11 | 20 to 100 | 10000 to 50000 | Cc1ccc(F)c([C@@H](C)[C@@H](c2n[nH]c(=O)o2)N2CN(C)c3cc(Cl)cc(C)c3S2(=O)=O)c1C [Example 26, 5-((1S,2R)-1-(6-chloro-4,8-dimethyl-1,1-dioxido-3,4-dihydro-2H-benzo[e][1,2,4]thiadiazin-2-yl)-2-(6-fluoro-2,3-dimethylphenyl)propyl)-1,3,4-oxadiazol-2 (3H)-one]
12 | < 20 | ≤ 1000 | COCCCN1CN([C@H](c2n[nH]c(=O)o2)[C@H](C)c2c(F)ccc(C)c2C)S(=O)(=O)c2ccc(Cl)cc21 [Example 30, 5-((1S,2R)-1-(6-chloro-4-(3-methoxypropyl)-1,1-dioxido-3,4-dihydro-2H-benzo[e][1,2,4]thiadiazin-2-yl)-2-(6-fluoro-2,3-dimethylphenyl)propyl)-1,3,4-oxadiazol-2 (3H)-one]
13 | < 20 | ≤ 1000 | Cc1ccc(F)c([C@@H](C)[C@@H](c2n[nH]c(=O)o2)N2CN(C3CCOCC3)c3cc(Cl)ccc3S2(=O)=O)c1C [Example 33, 5-((1S,2R)-1-(6-chloro-1,1-dioxido-4-(tetrahydro-2H-pyran-4-yl)-3,4-dihydro-2H-benzo[e][1,2,4]thiadiazin-2-yl)-2-(6-fluoro-2,3-dimethylphenyl)propyl)-1,3,4-oxadiazol-2 (3H)-one]
14 | < 20 | 1000 to 5000 | Cc1ccc(F)c([C@@H](C)[C@@H](c2n[nH]c(=O)o2)N2CN(CCCN(C)C)c3cc(Cl)ccc3S2(=O)=O)c1C [Example 34, 5-((1S,2R)-1-(6-chloro-4-(3-(dimethylamino)propyl)-1,1-dioxido-3,4-dihydro-2H-benzo[e][1,2,4]thiadiazin-2-yl)-2-(6-fluoro-2,3-dimethylphenyl)propyl)-1,3,4-oxadiazol-2 (3H)-one]
15 | < 20 | 1000 to 5000 | Cc1ccc(F)c([C@@H](C)[C@@H](c2n[nH]c(=O)o2)N2CCOc3c(ccc(Cl)c3C)S2(=O)=O)c1C [Example 36, 5-((1S,2R)-1-(7-chloro-6-methyl-1,1-dioxido-3,4-dihydro-2H-benzo[b][1,4,5]oxathiazepin-2-yl)-2-(6-fluoro-2,3-dimethylphenyl)propyl)-1,3,4-oxadiazol-2 (3H)-one]
16 | 1000 to 10000 | > 50000 | Cc1ccc(F)c([C@@H](C)[C@@H](c2n[nH]c(=O)o2)N2CN(C)c3cc(Cl)cc(C(=O)N(C)C)c3S2(=O)=O)c1C [Example 37, 6-chloro-2-((1S,2R)-2-(6-fluoro-2,3-dimethylphenyl)-1-(5-oxo-4,5-dihydro-1,3,4-oxadiazol-2-yl)propyl)-N,N,4-trimethyl-3,4-dihydro-2H-benzo[e][1,2,4]thiadiazine-8-carboxamide 1,1-dioxide]
